Where “and” joins values, the source holds several entries; their conditions need not be identical. Equal values may be shown once.
Columns and labels:
[1] = test system: MSLN CDS; assay: Dual-luciferase reporter assay, MSLN CDS constructs; assay type: cell-based, human; conditions: in the presence of miR-198
Text: (§1) For MSLN, six constructs were generated: 400 or 600 bp segments containing the WT sequence or specific 3-nucleotide mutations in the seed region of each miR-198 binding site were synthesized by GenScript and subcloned into the pEZX-MT01 3′UTR construct from Genecopoeia at Xba1 and BamH1 restriction sites such that they were inserted after the luciferase gene (FIG. 10). The same process was used for the VCP reporter constructs containing the full-length VCP 3′UTR (FIG. 10).
(§2) Dual luciferase assays were performed according to the manufacturer's instruction. Luciferase expression analysis was performed at 24 h using the Dual-luciferase kit (Promega) and Sirius Luminometer (Berthold Detection System). Results are presented as the ratio of firefly to Renilla luciferase activities, normalized to controls.

[2] = test system: MIA-MSLN cells; assay: Orthotopic pancreatic cancer mouse model; assay type: in vivo, nude mice
Protocol: (§3) All animal procedures were conducted under the guidelines approved by the Institutional Animal Care and Use Committee (IACUC). Cells (3×10^6) were inoculated into the right flank (s.c. model) or into the pancreas (orthotopic model) of 5 to 6-week-old male nude mice (NCI-Charles River) as previously described (Li et al., 2007). Tumor size was measured using a digital caliper and tumor volume was determined with the following formula: tumor volume (mm^3)=[length (mm)]×[width (mm)]2×0.52. For the orthotopic model, after 4 weeks all surviving mice were euthanized and evaluated macroscopically for the presence of orthotopic tumor and metastases in the abdominal cavity. Tumor spread was further visualized using a fluorescent filter to view GFP expression. The tumor nodules were explanted, counted, and weighed. Tumor tissues were stored in RNAse Later solution (Ambion) in −80° for subsequent RNA/miRNA isolation and analysis.

[3] = test system: MIA-MSLN cells; assay: Invasion assay across Matrigel; assay type: cell-based, human; conditions: 36 h after miR-198 precursor transfection
Protocol: (§4) Cell migration was determined with a modified Boyden chamber assay as described previously (Li et al., 2008). For invasion assays, Matrigel basement membrane matrix (BD Biosciences) was used by adding 100 ul of 1 mg/ml Matrigel to the migration chamber inserts prior to plating of the cells (Li et al., 2008, Bharadwaj).
(§5) An invasion assay was performed as described for the migration assay. For invasion, Matrigel basement membrane matrix (BD Biosciences) was used by adding 100 μl of 1 mg/ml Matrigel to the migration chamber inserts prior to plating of the cells.

[4] = test system: AsPC1 cells; assay: Invasion assay across Matrigel; assay type: cell-based, human; conditions: AsPC1 cells following miR-198 overexpression
Protocol: as §4, §5

[5] = test system: MIA-MSLN cells; assay: Migration, modified Boyden chamber assay; assay type: cell-based, human
Protocol: as §4

[6] = test system: AsPC1 cells; assay: Migration, modified Boyden chamber assay; assay type: cell-based, human; conditions: stable miR-198 overexpression in AsPC1 cells, FIG. 14D
Protocol: as §4

[7] = test system: PBX-1 3′UTR; assay: Dual-luciferase reporter assay, PBX-1 3′UTR; assay type: cell-based; conditions: following miR-198 transfection/overexpression; firefly/Renilla ratio, 24 h
Protocol: A luciferase construct containing the first 491 bases of the PBX-1 3′UTR was purchased from Switchgear Genomics. Two mutant PBX-1 3′UTR reporters were subsequently generated using the Stratagene Quickchange Site-directed Mutagenesis kit, with the WT miR-198 binding site seed region either altered from TCTGGA to AAGCTT (a HindIII restriction site) or deleted entirely (FIG. 10).
as §2
The PBX-1 3′UTR region was cloned into the pSGG-3UTR vector (based on pGL4.11 vector with a MCS added after luciferase) after the reporter gene, firefly luciferase, whose expression is regulated by the SV40 promoter. A separate reporter for Renilla luciferase under the control of the CMV promoter was utilized to normalize for transfection efficiency. The identity of the 3′UTR sequence including the predicted miR-198 binding site was confirmed using the following primers: Fwd: […] [SEQ ID NO. 111], Rev: […]. [SEQ ID NO. 112]

[8] = test system: MIA-V cells; assay: Apoptosis assay (TUNEL) after TNF-α; assay type: cell-based, human; conditions: TUNEL after TNF-α treatment
Protocol: (§6) Apoptosis induction was determined using western blotting for Caspase 3 cleavage and confirmed by labeling DNA breaks using a terminal deoxynucleotidyltransferase dUTP nick end labeling (TUNEL) assay with the APO-DIRECT Kit (BD Biosciences) following 96 h of treatment (24 h serum starvation followed by 72 h of treatment with 20 ng/ml of TNF-α). Briefly, cells were plated in either 10% FBS media or serum-starved for 96 h, at which time 1×10^6 cells were harvested using trypsin-EDTA. After centrifugation, the pellets were washed twice with PBS, then resuspended in 1% paraformaldehyde in PBS and incubated on ice for 45 minutes. After several washes, the cell pellet again was resuspended in PBS/ethanol, incubated on ice for 30 minutes, and stored at −20° C. Cell samples were then pelleted, washed, and resuspended in 50 μL of DNA labeling solution containing a reaction buffer, terminal deoxynucleotidyl transferase enzyme, FITC-labeled deoxyuridine triphosphate nucleotides, and distilled water. After a 60-minute incubation at 37° C., cells were again washed, pelleted, and resuspended in 500 μl of propidium iodine/RNase staining buffer. Samples were then analyzed by flow cytometry (fluorescence-activated cell sorting) using a FACSCalibur (Becton Dickinson, Franklin Lakes, NJ). Data was further analyzed using the software FLOWJOW ver. 6.1.1 (Tree Star Inc.).

[9] = test system: AsPC1 cells; assay: Apoptosis assay (TUNEL) after TNF-α; assay type: cell-based, human; conditions: AsPC1-miR-198 cells, TUNEL after TNF-α treatment
Protocol: as §6

[10] = test system: MIA-MSLN cells; assay: Subcutaneous pancreatic cancer mouse model; assay type: in vivo, nude mice
Protocol: as §3

[11] = test system: VCP 3′UTR; assay: Dual-luciferase reporter assay, VCP 3′UTR; assay type: cell-based; conditions: following miR-198 overexpression; firefly/Renilla ratio, 24 h
Text: as §1, §2

[12] = test system: MIA-MSLN cells; assay: Apoptosis assay (TUNEL, caspase 3 western) after TNF-α; assay type: cell-based, human
Protocol: as §6

In the case of “miR-198: microRNA-198, SEQ ID NO: 1 gguccagaggggagauagg; used as transfected precursors (Ambion) or Lenti-miR stable overexpression (GGUCCAGAGGGGAGAUAGG; listed as RNA, chemistry not given here; listed as Homo sapiens)”, the “decrease in firefly luciferase expression, MSLN CDS site 2 WT construct” value [1] is reported as “almost completely”, the “decrease in firefly luciferase expression, MSLN CDS site 3 WT construct” value [1] is reported as ~70% and the “decrease in firefly luciferase expression, MSLN CDS site 1 construct” value ([1]; not statistically significant) is reported as “slight reduction”. For the same substance, the “average primary tumor weight” value ([2]; orthotopic MIA-MSLN-miR-198 cells, after 4 weeks) was 0.06 g, the metastases ([2]; orthotopic MIA-MSLN-miR-198 injected mice, 8 mice) was “Four of the eight mice had no metastases” and the “jaundice, weight loss, and abdominal ascitic fluid” value ([2]; orthotopic, mice injected with high miR-198 cells) was “none of the mice injected with high miR-198 cells had these symptoms”. The invasion reduced [3] was 24%, the invasion decreased [4] was ~50% and the migration reduced ([5]; 36 h after transient miR-198 transfection) was 44%. The migration reduced ([5]; stable miR-198 overexpression, after 48 h) was ~40%, the migration reduced [6] was 33% and the migration reduced ([6]; listed as MiR-198) was > 50%. For the same substance, the “reduction in PBX-1 3′UTR luciferase expression” value [7] was 65%, the apoptotic cells [8] was ~75% and the “increase in number of cells undergoing apoptosis over controls” value [9] was > 90%. For the same substance, the “mice that developed tumors” value ([10]; s.c. MIA-MSLN-miR-198 cells) was 3 of 9, the average tumor volume ([10]; s.c. MIA-MSLN-miR-198 cells, day 45 post injection, the three mice with tumors) was 37 mm^3 and 36 mm^3 and the “mice with no signs of tumor development” value ([10]; s.c. miR-198 overexpressing cells, tumor-free for 45 days) was 6/9. The first measurable tumors ([10]; s.c., the three mice that presented small tumors) was 35 day post injection, the “decrease in VCP 3′UTR luciferase activity” value [11] was ~70% and the “increase in number of cells undergoing apoptosis over controls” value ([12]; MIA-MSLN-miR-198 cells, TUNEL after TNF-α treatment) was > 60%. The “caspase 3 cleavage” value ([12]; overexpression of miR-198 in MIA-MSLN cells, western blot) was “results in caspase 3 cleavage”.

— patent US12134769B2, “MicroRNA-198 as a tumor suppressor in ovarian cancer” (Baylor College of Medicine, priority 2011, dated 2024)
